Data published in ChEMBL document CHEMBL1275486, “Kinetic characterization of VIM-7, a divergent member of the VIM metallo-beta-lactamase family” (Antimicrob Agents Chemother, 2008).

What was measured:
Escherichia coli [1] = test: Activity of Escherichia coli beta-lactamase VIM-1 by spectrophotometry
Escherichia coli [2] = test: Ratio of Kcat to Km for Escherichia coli beta-lactamase VIM-1 by spectrophotometry

Compound | Km (Escherichia coli [1]) [µM] | kcat (Escherichia coli [1]) [s⁻¹] | kcat/Km (Escherichia coli [2]) [M⁻¹ s⁻¹]
CO/N=C(\C(=O)N[C@@H]1C(=O)N2C(C(=O)[O-])=C(C[N+]3(C)CCCC3)CS[C@H]12)c1csc(N)n1 | 150 | 550 | 3.7e+06
CO[C@@]1(NC(=O)C(C(=O)O)c2ccc(O)cc2)C(=O)N2C(C(=O)O)=C(CSc3nnnn3C)CO[C@@H]21 (stereo not given in full) | 450 | 43 | 96000
CO[C@@]1(NC(=O)Cc2cccs2)C(=O)N2C(C(=O)O)=C(COC(N)=O)CS[C@@H]21 | 130 | 26 | 200000
C[C@@H](O)[C@H]1C(=O)N2C(C(=O)O)=C(SCCNC=N)C[C@H]12 | 1.5 | 0.2 | 130000
C[C@@H](O)[C@H]1C(=O)N2C(C(=O)O)=C(S[C@@H]3CN[C@H](C(=O)N(C)C)C3)[C@H](C)[C@H]12 | 50 | 13 | 260000
